# Where “and” joins values, the source holds several entries; their conditions need not be identical. Identical values can stand only once. Counter-ions that a name gives are not always drawn.
# Tests used:
# [1] = Formation of formazan dyes: control buffer and 1-Methoxy PMS, absence of malate (TABLE 21); format: biochemical
# [2] = test system: Malate dehydrogenase and diaphorase; assay: Formation of formazan dyes: Malate dehydrogenase, diaphorase and malate (TABLE 10); format: biochemical, pig heart
# [3] = biological target: T1, Malate dehydrogenase (Sus scrofa, UniProt P00346); assay: Formation of formazan dyes: Malate dehydrogenase and 1-Methoxy PMS, absence of malate (TABLE 17); format: biochemical, pig heart; parameters: L-malate dehydrogenase (pig heart); purchased Sigma-Aldrich 10127248001 / 10127914001
# T1 sequence (P00346 25-338): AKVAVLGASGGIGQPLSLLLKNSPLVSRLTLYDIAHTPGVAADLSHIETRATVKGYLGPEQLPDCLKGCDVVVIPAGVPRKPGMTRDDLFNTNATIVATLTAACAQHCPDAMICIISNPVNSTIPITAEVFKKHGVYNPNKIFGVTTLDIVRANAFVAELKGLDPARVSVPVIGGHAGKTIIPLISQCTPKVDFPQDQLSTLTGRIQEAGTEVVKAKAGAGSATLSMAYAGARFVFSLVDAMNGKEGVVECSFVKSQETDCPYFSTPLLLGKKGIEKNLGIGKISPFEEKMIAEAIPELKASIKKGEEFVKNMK
# [4] = test system: diaphorase; assay: Formation of formazan dyes: only diaphorase and malate (TABLE 14); format: biochemical, Clostridium kluyveri; conditions: mean of three experiments
# [5] = Formation of formazan dyes: NADH, malate and 1-methoxy PMS (TABLE 16); format: biochemical
# [6] = test system: oral lavage; assay: Formation of formazan dyes: oral lavage, malate and diaphorase (TABLE 12); format: biochemical, human; conditions: oral lavage, malate and diaphorase
# [7] = Formation of formazan dyes: control buffer, malate and 1-Methoxy PMS (TABLE 22); format: biochemical
# [8] = test system: diaphorase; assay: Formation of formazan dyes: NADH and diaphorase, absence of malate (TABLE 7); format: biochemical, Clostridium kluyveri; conditions: NADH and diaphorase, absence of malate
# [9] = test system: diaphorase; assay: Formation of formazan dyes: NADH, diaphorase and malate (TABLE 8); format: biochemical, Clostridium kluyveri; conditions: NADH, diaphorase and malate
# [10] = test system: Malate dehydrogenase and diaphorase; assay: Formation of formazan dyes: Malate dehydrogenase and diaphorase, absence of malate (TABLE 9); format: biochemical, pig heart
# [11] = biological target: T1, Malate dehydrogenase; assay: Formation of formazan dyes: Malate dehydrogenase, malate and 1-Methoxy PMS (TABLE 18); format: biochemical, pig heart; parameters: L-malate dehydrogenase (pig heart); purchased Sigma-Aldrich 10127248001 / 10127914001
# [12] = test system: diaphorase; assay: Formation of formazan dyes: only diaphorase, not malate (TABLE 13); format: biochemical, Clostridium kluyveri; conditions: mean of three experiments
# [13] = test system: oral lavage; assay: Formation of formazan dyes: oral lavage and diaphorase, not malate (TABLE 11); format: biochemical, human
smiles,measurement,setting,value
"COc1cc([N+](=O)[O-])c(S(=O)(=O)[O-])cc1-n1nc(C(=O)Nc2ccccc2)n[n+]1-c1cc(S(=O)(=O)O)c([N+](=O)[O-])cc1OC [XTT, 2,3-Bis(2-methoxy-4-nitro-5-sulfophenyl)-2H-tetrazolium-5-carboxanilide inner salt]",conversion into colored formazan dyes in assay buffer containing 1-methoxy PMS,[1],slowly catalyze the conversion of tetrazolium salts into colored formazan dyes
same,"Formation of formazan dyes, absorbance, Means 0 h","[2]; Malate dehydrogenase, diaphorase and malate, 0 h",1.21
same,"Formation of formazan dyes, absorbance, Means 1 h","[2]; Malate dehydrogenase, diaphorase and malate, 1 h",1.98
same,"Formation of formazan dyes, absorbance, Means 2 h","[2]; Malate dehydrogenase, diaphorase and malate, 2 h",2.41
same,"Formation of formazan dyes, absorbance, Means 3 h","[2]; Malate dehydrogenase, diaphorase and malate, 3 h",2.71
same,"Formation of formazan dyes, absorbance, Means 4 h","[2]; Malate dehydrogenase, diaphorase and malate, 4 h",3.02
same,"Formation of formazan dyes, absorbance, Means 6 h","[2]; Malate dehydrogenase, diaphorase and malate, 6 h",3.54
same,"Formation of formazan dyes, absorbance, Means 8 h","[2]; Malate dehydrogenase, diaphorase and malate, 8 h",3.86
same,"Formation of formazan dyes, absorbance, Means 10 h","[2]; Malate dehydrogenase, diaphorase and malate, 10 h",3.90
same,"Formation of formazan dyes, absorbance, Means 12 h","[2]; Malate dehydrogenase, diaphorase and malate, 12 h",3.80
same,conversion to reduced formazan dyes,"[2]; malate dehydrogenase, diaphorase and malate (TABLE 10)",converted to reduced formazan dyes in a time-dependent manner
same,"Absorbance, formation of formazan dyes (Means)",[3],0.61 and 0.72 and 0.80 and 0.82 and 0.84 and 0.85 and 0.91 and 0.93
same,"Absorbance, formation of formazan dyes (Means)",[4]; 0 h,0.39
same,"Absorbance, formation of formazan dyes (Means)",[4]; 1 h,0.45
same,"Absorbance, formation of formazan dyes (Means)",[4]; 2 h,0.48
same,"Absorbance, formation of formazan dyes (Means)",[4]; 3 h,0.53
same,"Absorbance, formation of formazan dyes (Means)",[4]; 4 h,0.52
same,"Absorbance, formation of formazan dyes (Means)",[4]; 6 h,0.57
same,"Absorbance, formation of formazan dyes (Means)",[4]; 8 h,0.63
same,"Absorbance, formation of formazan dyes (Means)",[4]; 10 h,0.69
same,"Absorbance, formation of formazan dyes (Means)",[4]; 12 h,0.73
same,"Absorbance, formation of formazan dyes (Means)",[5],1.51 and 1.56 and 1.61 and 1.67 and 1.80 and 1.94 and 2.02 and 2.15
same,"Formation of formazan dyes, absorbance, Means 0 h",[6]; 0 h,0.75
same,"Formation of formazan dyes, absorbance, Means 1 h",[6]; 1 h,0.88
same,"Formation of formazan dyes, absorbance, Means 2 h",[6]; 2 h,0.94
same,"Formation of formazan dyes, absorbance, Means 3 h",[6]; 3 h,0.98
same,"Formation of formazan dyes, absorbance, Means 4 h",[6]; 4 h,1.19
same,"Formation of formazan dyes, absorbance, Means 6 h",[6]; 6 h,1.41
same,"Formation of formazan dyes, absorbance, Means 8 h",[6]; 8 h,1.73
same,"Formation of formazan dyes, absorbance, Means 10 h",[6]; 10 h,1.90
same,"Formation of formazan dyes, absorbance, Means 12 h",[6]; 12 h,2.08
same,Means absorbance 0 h,[7],0.42
same,Means absorbance 1 h,[7],0.48
same,Means absorbance 2 h,[7],0.53
same,Means absorbance 3 h,[7],0.59
same,Means absorbance 4 h,[7],0.60
same,Means absorbance 6 h,[7],0.77
same,Means absorbance 8 h,[7],0.91
same,Means absorbance 10 h,[7],1.03
same,Means absorbance 12 h,[7],1.17
same,"Formation of formazan dyes, absorbance, Means 0 h",[8]; 0 h,2.22
same,"Formation of formazan dyes, absorbance, Means 1 h",[8]; 1 h,2.35
same,"Formation of formazan dyes, absorbance, Means 2 h",[8]; 2 h,2.36
same,"Formation of formazan dyes, absorbance, Means 3 h",[8]; 3 h,2.32
same,"Formation of formazan dyes, absorbance, Means 4 h",[8]; 4 h,2.40
same,"Formation of formazan dyes, absorbance, Means 6 h",[8]; 6 h,2.39
same,"Formation of formazan dyes, absorbance, Means 8 h",[8]; 8 h,2.45
same,"Formation of formazan dyes, absorbance, Means 10 h",[8]; 10 h,2.45
same,"Formation of formazan dyes, absorbance, Means 12 h",[8]; 12 h,2.46
same,"Formation of formazan dyes, absorbance, Means 0 h",[9]; 0 h,1.95
same,"Formation of formazan dyes, absorbance, Means 1 h",[9]; 1 h,2.20
same,"Formation of formazan dyes, absorbance, Means 2 h",[9]; 2 h,2.18
same,"Formation of formazan dyes, absorbance, Means 3 h",[9]; 3 h,2.17
same,"Formation of formazan dyes, absorbance, Means 4 h",[9]; 4 h,2.23
same,"Formation of formazan dyes, absorbance, Means 6 h",[9]; 6 h,2.28
same,"Formation of formazan dyes, absorbance, Means 8 h",[9]; 8 h,2.33
same,"Formation of formazan dyes, absorbance, Means 10 h",[9]; 10 h,2.41
same,"Formation of formazan dyes, absorbance, Means 12 h",[9]; 12 h,2.45
same,"Formation of formazan dyes, absorbance, Means 0 h","[10]; Malate dehydrogenase and diaphorase, absence of malate, 0 h",0.39
same,"Formation of formazan dyes, absorbance, Means 1 h","[10]; Malate dehydrogenase and diaphorase, absence of malate, 1 h",0.44
same,"Formation of formazan dyes, absorbance, Means 2 h","[10]; Malate dehydrogenase and diaphorase, absence of malate, 2 h",0.46
same,"Formation of formazan dyes, absorbance, Means 3 h","[10]; Malate dehydrogenase and diaphorase, absence of malate, 3 h",0.50
same,"Formation of formazan dyes, absorbance, Means 4 h","[10]; Malate dehydrogenase and diaphorase, absence of malate, 4 h",0.50
same,"Formation of formazan dyes, absorbance, Means 6 h","[10]; Malate dehydrogenase and diaphorase, absence of malate, 6 h",0.54
same,"Formation of formazan dyes, absorbance, Means 8 h","[10]; Malate dehydrogenase and diaphorase, absence of malate, 8 h",0.57
same,"Formation of formazan dyes, absorbance, Means 10 h","[10]; Malate dehydrogenase and diaphorase, absence of malate, 10 h",0.58
same,"Formation of formazan dyes, absorbance, Means 12 h","[10]; Malate dehydrogenase and diaphorase, absence of malate, 12 h",0.66
same,reduction of tetrazolium dye in the absence of substrate malate,[10]; malate dehydrogenase and diaphorase (TABLE 9),remained largely in oxidized forms
same,"Absorbance, formation of formazan dyes (Means)",[11],2.09 and 3.28 and 3.71 and 3.96 and 4.00
same,"Absorbance, formation of formazan dyes (Means)",[12]; 0 h,0.41
same,"Absorbance, formation of formazan dyes (Means)",[12]; 1 h,0.49
same,"Absorbance, formation of formazan dyes (Means)",[12]; 2 h,0.52
same,"Absorbance, formation of formazan dyes (Means)",[12]; 3 h,0.54
same,"Absorbance, formation of formazan dyes (Means)",[12]; 4 h,0.54
same,"Absorbance, formation of formazan dyes (Means)",[12]; 6 h,0.60
same,"Absorbance, formation of formazan dyes (Means)",[12]; 8 h,0.63
same,"Absorbance, formation of formazan dyes (Means)",[12]; 10 h,0.64
same,"Absorbance, formation of formazan dyes (Means)",[12]; 12 h,0.67
same,"Formation of formazan dyes, absorbance, Means 0 h","[13]; oral lavage and diaphorase, not malate, 0 h",0.80
same,"Formation of formazan dyes, absorbance, Means 1 h","[13]; oral lavage and diaphorase, not malate, 1 h",0.98
same,"Formation of formazan dyes, absorbance, Means 2 h","[13]; oral lavage and diaphorase, not malate, 2 h",1.04
same,"Formation of formazan dyes, absorbance, Means 3 h","[13]; oral lavage and diaphorase, not malate, 3 h",0.99
same,"Formation of formazan dyes, absorbance, Means 4 h","[13]; oral lavage and diaphorase, not malate, 4 h",1.18
same,"Formation of formazan dyes, absorbance, Means 6 h","[13]; oral lavage and diaphorase, not malate, 6 h",1.24
same,"Formation of formazan dyes, absorbance, Means 8 h","[13]; oral lavage and diaphorase, not malate, 8 h",1.26
same,"Formation of formazan dyes, absorbance, Means 10 h","[13]; oral lavage and diaphorase, not malate, 10 h",1.27
same,"Formation of formazan dyes, absorbance, Means 12 h","[13]; oral lavage and diaphorase, not malate, 12 h",1.28
same,reduction to formazan dyes by pooled oral lavage,"[13]; pooled oral lavage of high bleeder group, diaphorase, no added malate (TABLE 11)",changed to formazan dyes in a significant amount
